How the values were obtained:
phospho-AXL (p-AXL) = molecular target: T1, phospho-AXL (p-AXL) (Mus musculus, UniProt Q00993); assay: Mouse phospho-RTK array in CT26 cells; assay type: cell-based; details: 500 nM, CT26 cells in vitro
T1 construct: CT26 cells also express high level of phospho-AXL (p-AXL) by western blot analysis; endogenous in cells; host or cells: CT26 (mouse colorectal cancer line)
Method: CT26 CRC tumor cells harbor KRAS activating mutation G12D. […] CT26 cells also express high level of phospho-AXL (p-AXL) by western blot analysis and merestinib is shown to decrease p-AXL in vitro by more than 60% at a concentration of 500 nM in the mouse phospho-RTK array, but show very little effect on CT26 cell proliferation (IC50>20 μM).

[1] = test system: 80-murine immune gene panel (mRNA expression) in CT26 tumors; assay: Immuno-landscape analysis, QuantiGene mu-80 immune gene panel on CT26 tumors; assay type: in vivo, mouse; details: for Log2 (difference to vehicle control): CT26 tumors, Day 20
Method: Frozen tumor fragments of the samples collected on study Day 20 from 5 animals from each treatment arm (study S010516) are analyzed for gene expression of 80 markers using the Quantigene murine-80 panel (mu-80 immune panel #21681). Total RNA was isolated from lysed samples using the MAGMAX™ 96 Total RNA isolation kit (Life Technologies). Snap-frozen tumor fragments are lysed by adding 500 μL, of prepared lysis/binding buffer (MAGMAX™ 96 Total RNA isolation kit) with a single stainless steel bead (5 mm) and then homogenized on a TissueLyser (Qiagen) for 2 minutes at 25 Hz. 200 μL of lysate, along with 120 μL of 100% isopropanol and 40 μL of prepared magnetic beads mix are then transferred to a 96 deep well processing plate. A series of washes and a DNase incubation step are processed on the MAGMAX™ Express-96 Deep Well Magnetic Particle Processor (Life Technologies). RNA is eluted from the magnetic beads with […] of elution buffer after a final wash step. RNA concentration is determined spectrophotometrically to determine optical density at 260 and 280 nm and is then diluted to the final concentration of 25 ng/μl. Tissue expression of immune related genes is then measured using a QuantiGene® 2.0 Plex assay (Affymetrix) with a custom probe set (mu-80 immune panel #21681, Table 6). Four house-keeping-genes (HKG: Gusb, Hprt1, Ppib, Rps18) are used to normalize the gene expression data. Data are normalized and curated using the Genepattern script v28.8. Statistics and bioinformatics are used to analyze the data.
Five hundred ng of total RNA from samples being analyzed is added in duplicate to individual wells of a 96-well hybridization plate containing QuantiGene® magnetic capture beads, QuantiGene® probeset #21681, and QuantiGene® blocking reagent for a final volume of 100 μL. The hybridization plate is then sealed and incubated at 54° C. while agitated at 600 rpm for 16 hours. Samples are then transferred to a 96-well assay plate and beads are then sequentially hybridized first with 100 μl of QuantiGene® Pre-Amplifier Probe, then with QuantiGene® Amplifier Probe, and finally with QuantiGene® Label Probe (1 hour at 50° C. for each step, with 2-3 washes between each step using a magnetic capture plate). Streptavidin-conjugated R-Phycoerythrin (SAPE, Affymetrix) is added after the last hybridization step and incubated for 30 minutes at room temperature with agitation at 600 rpm. Samples are then analyzed on the FLEXMAP 3D® Luminex instrument (Luminex Corp). Beads (mRNA target) are identified with a red laser while the level of RNA is determined by measuring the mean fluorescence intensity (MFI) of Phycoerythrin with a green laser. Raw MFI data are then converted into relative gene expression for each gene (Normalized Adjusted Net MFI, background subtracted and normalized to 4 housekeeping genes), using a quality control analysis script with GenePattern (Broad Institute). […] Next, the lower limit of detection (LLOD) is determined (average background MFI+3 standard deviation (SD)). […] Relative gene expression is then calculated by normalizing for each gene's adjusted net MFI to the geometric mean of the MFI of selected housekeeping genes (HKG) including Hprt1, Gusb, Rps18 and Ppib, as shown in Table 6: (Sample Adjusted Net MFI/geometric mean Adjusted Net HKG MFI) multiplied by a scaling factor of 100. […]

immune cells = assay: Flow cytometry analysis of immune cells in spleens and tumors; assay type: in vivo, mouse; details: compared to concurrent combination or vehicle control
Method: Spleens and tumors are collected from a subset of animals on the indicated study day(s) and processed for FACS analysis by homogenizing tissues through a tissue strainer to prepare a single cell suspension in culture medium. Single cell suspensions are then stained with fluorescently-labeled antibodies to identify immune markers including: CD3, CD4, CD8, CD11b, CD19, CD45, FoxP3, PD-L1, F4/80 and a fixable viability dye. Cells are analyzed using a BD LSR II flow cytometer. Data are collected and analyzed using Flowjo (Tree Star, Inc.) to measure the percentage of total live lymphocytes (Live, CD45+) in each tissue. Immune cell subsets are then measured as a percentage of CD45 cells, or as a percentage of the immediate parent population.

T1 sequence (Q00993 19-888): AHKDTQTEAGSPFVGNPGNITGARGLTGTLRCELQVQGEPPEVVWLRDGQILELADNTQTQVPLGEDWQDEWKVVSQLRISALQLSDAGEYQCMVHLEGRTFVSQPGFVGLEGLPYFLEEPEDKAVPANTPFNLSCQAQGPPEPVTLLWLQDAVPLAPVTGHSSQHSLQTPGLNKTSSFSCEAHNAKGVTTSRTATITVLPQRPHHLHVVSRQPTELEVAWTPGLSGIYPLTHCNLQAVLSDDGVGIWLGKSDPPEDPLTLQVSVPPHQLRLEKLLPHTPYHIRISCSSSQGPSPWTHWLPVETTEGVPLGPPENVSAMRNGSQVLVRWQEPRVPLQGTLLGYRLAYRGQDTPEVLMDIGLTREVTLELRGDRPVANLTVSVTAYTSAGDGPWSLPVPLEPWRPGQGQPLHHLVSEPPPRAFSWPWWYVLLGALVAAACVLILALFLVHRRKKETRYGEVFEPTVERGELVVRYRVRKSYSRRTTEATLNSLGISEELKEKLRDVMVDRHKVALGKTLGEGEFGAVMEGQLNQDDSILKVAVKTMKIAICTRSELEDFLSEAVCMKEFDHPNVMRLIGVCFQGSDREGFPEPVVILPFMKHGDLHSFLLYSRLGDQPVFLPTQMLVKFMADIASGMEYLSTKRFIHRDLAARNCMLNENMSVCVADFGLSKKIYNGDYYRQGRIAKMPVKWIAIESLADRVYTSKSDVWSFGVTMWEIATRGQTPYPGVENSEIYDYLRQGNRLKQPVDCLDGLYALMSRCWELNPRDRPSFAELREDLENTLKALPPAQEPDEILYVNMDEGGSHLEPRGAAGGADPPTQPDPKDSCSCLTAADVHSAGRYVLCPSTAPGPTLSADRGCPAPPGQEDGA

Cc1ccc(C(=O)Nc2ccc(Oc3cc4cnn(C)c4cc3-c3cn[nH]c3)c(F)c2)c(=O)n1-c1ccc(F)cc1 [merestinib, N-(3-fluoro-4-(1-methyl-6-(1H-pyrazol-4-yl)-1H-indazol-5-yloxy)phenyl)-1-(4-fluorophenyl)-6-methyl-2-oxo-1,2-dihydropyridine-3-carboxamide]
decrease of p-AXL (phospho-AXL (p-AXL)): more than 60% | Log2 (difference to vehicle control) ([1]; gene Cdh1): 1.01 | Log2 (difference to vehicle control) ([1]; gene Cdh1, listed as Merestinib alone): 1.0 | Log2 (difference to vehicle control) ([1]; gene Tnfrsf): 0.8 | number of immune genes with no significant change vs vehicle control ([1]; of an 80-immune gene panel): 79 | number of immune genes significantly different from vehicle control ([1]; of the 80 immune genes measured, tumors Day 20): 1 | change in immune cells by flow cytometry (immune cells): no significant change

From patent US20190269666A1, “COMBINATION THERAPY WITH MERESTINIB AND ANTI-PD-L1 OR ANTI-PD-1 INHIBITORS FOR USE IN THE TREATMENT OF CANCER” (Eli Lilly and Company, priority 2016, published 2019)
